# Measurements taken from US8420100B2, “Tumor suppressor activating polypeptides and uses thereof” (Department of Biotechnology, priority 2006, dated 2013).
# “Also recorded” adds a separate entry of the source.
# Legend:
# [1] = test system: HIF-1α; assay: Immunohistochemical staining of tumor sections for HIF-1α; assay type: in vivo, mouse; conditions: tumors excised from treated mice
# Source text: (§1) Histopathological changes in the subcutaneous tumors: To analyze the tumor vasculature of TAT PTD, SM treated and P44 treated mice, the tumor sections were stained with HE. […] In SM treated tumors, due to compressed vessels, the shape of RBCs were also distorted (FIG. 7A, lower right panel, arrow marked). […] The presence of hypoxic cells is a hallmark of cancer (Brown, J. M., and Wilson, W. R. (2004) Nat. Rev. Cancer 4, 437-447; Minchinton, A. I., and Tannock, I. F. (2006) Nat. Rev. Cancer 6, 583-592). Cellular responses to hypoxia are triggered by the hypoxia inducible factor-1 alpha (HIF-1α) that is known to restore tissue homeostasis in hypoxic conditions (Semenza, G. L. (2000) Genes Dev. 14, 1983-1991). To determine the status of HIF-1α expression, immunohistochemical analysis was performed on tumor sections obtained from SM and P44 treated mice by using antibody against HIF-1 α. […] All these observations implicate the significance of P44 peptide in restoring tissue architecture in tumor cells and thus potentiates its role as a tumor regressor.
# (§2) FIG. 7. Histopathological changes in B16F1-induced tumors. A, Hematoxylin and eosin staining of tumor sections excised from mice treated with either P44 (upper panel) or SM (lower panel) peptide. […] The images have been recorded at 20× and 40×. B, Immunohistochemistry of paraffin embedded tumor sections from P44 treated as well as, SM treated mice. After antigen unmasking, sections were stained with HIF-1α antibody (middle panel) and detected using Cy-3 conjugated mouse immunoglobulin. Sections were counterstained with DAP1 for nuclear localization (left panel). Right panel corresponds to the merged image.
# Immunohistochemical staining of tumor sections: Tumor sections in paraffin-embedded blocks were transferred to poly-L-lysine coated glass slides and air-dried overnight at 37° C. They were dewaxed in xylene (three changes) and […] in graded series of decreasing ethanol concentrations. […] Thereafter, detected using cy-3 fluorescence labeled secondary antibody. […]
# [2] = test system: tumor vasculature of B16F1-induced tumors; assay: Hematoxylin and eosin histopathology of B16F1-induced tumors; assay type: in vivo, mouse; conditions: tumors excised from treated mice
# Source text: as §1, §2
# [3] = test system: B16F1 mouse melanoma cells; assay: B16F1 melanoma tumor regression in nude mice; assay type: in vivo; conditions: for anti-tumorigenic activity (tumor regression): xenograft tumor nude mice model
# Procedure: P44 peptide: A potent tumor regressor: To test whether the differences in SMAR1 derived peptide-induced activation of p53 translated to differences in drug sensitivity in vivo, B16F1 mouse melanoma cells were subcutaneously grafted into athymic nude mice, and tumor growth together with therapeutic sensitivity was monitored. Once the tumor nodule was established into the mouse, P44 peptide was injected in the tumor localized areas at a physiological dose of 200 μg/mouse thrice a week. The treatment was continued for 4 weeks. In a parallel experiment, either TAT PTD or TAT-SMAR1 RS mutant peptide, SM (FIGS. 6A and B, respectively) was injected in tumor bearing mice to be used as control.
# FIG. 6D-F corresponds to the magnified tumor images of FIG. 6A-C, respectively. […] Thus, P44 peptide mimics the function of full-length SMAR1 in drastically reducing the tumor growth.
# FIG. 6. Tumor regression by TAT-SMAR1 WT peptide. A, Nude mice were allowed to develop tumors by subcutaneously injecting B 16F1 mouse melanoma cells. Mice with size-matched tumors were then randomized into three treatment groups (five animals per group); TAT PTD alone (panel A), TAT-SMART RS mutant (SM) (panel B) and TAT-SMAR1 WT (P44) (panel C). Panels D, E and F correspond to the magnified images of panels A, B and C, respectively. Mice were treated with either of the peptides at a dose of 200 μg/mice/thrice a week for consecutive 4 weeks. The tumors were then weighed and plotted for each mouse in all the treatment groups (panel G).
# Animal model for tumorgenesis: B16F1 mouse melanoma cells in the exponential growth phase were trypsinized (Invitrogen) and washed twice with PBS. Cell number and viability was assessed and cell cultures with viability >90% were used. Tumors were then established in nude mice by subcutaneous injection of 2×10^6 B16F1 cells. Five mice were used in each set of experiments. The mice were maintained under pathogen-free conditions. When the subcutaneous tumor was clearly visible, the TAT-SMAR1 WT (P44) peptide treatment was started. The P44 peptide was subcutaneously injected proximal to the tumor sites at a dose of 200 μg/mouse thrice a week. The treatment was administered for 4 weeks. For control treatment, TAT PTD alone and TAT SMAR1 RS mutant peptide (SM) were injected in the same manner as the P44 peptide.
# [4] = test system: cell cycle regulatory genes; assay: Microarray gene expression upon P44 treatment; assay type: cell-based
Sequence,HIF-1α expression in tumor sections [1],tumor vascular architecture (HE staining) [2],"tumor weight after excision ([3]; nude mice, 200 μg/mouse thrice a week, 4 weeks) [g]",anti-tumorigenic activity (tumor regression) [3],inter-vessel distance compared to SM-treated tumors [2],"expression of genes involved in regulating mitosis, MAPK signaling and cell cycle checkpoints [4]",expression of proteins involved in ubiquitin-proteasome signaling [4],"regression in tumor compared to TAT-injected or SM injected mice ([3]; nude mice, 200 μg/mouse thrice a week, 4 weeks, injected at tumor site)"
"YGRKKRRQRRRTAWRRKQRGQSLAVKSFSRRTPAAAAYSASETM [SM, P44 mutant where serine residues from 347-350 were replaced by alanines]",increased HIF-1 α expression,leaky vascular architecture; also recorded: poorly organized vascular architecture and compressed blood vessels,1.2 to 2.5,significantly reduced,–,–,–,–
"YGRKKRRQRRRTAWRRKQRGQSLAVKSFSRRTPSSSSYSASETM [P44, 33 mer SMAR1 peptide (residues 324-357) conjugated with 11-mer TAT-PTD]",no detectable level of HIF-1α,intact vasculature,–,strongly regressed tumors,significantly less,significant decreased expression,reduced expression,5-7 fold
